In patent US6479435B1, “Diaryl ethers and processes for their preparation and herbicidal and desiccant compositions containing them” (ISK Americas Incorporated, priority 1997, dated 2002):

What was measured:
Format in all cases: in vivo
[1] = tested on: upland rice (Oryza sp., var.Tebonnet, RICE); assay: Pre-emerge greenhouse test, crop damage rating; details: 14 days after application, rating scale 0-100
Summary of the method: (§1)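 Visual 0–100 injury rating (100 = all plants dead) taken 14 days after treatment. Rates of 125–1000 g ai/ha in acetone, 187 l/ha, were sprayed onto soil one day post-sowing; pots were surface-watered to incorporate, then bottom-watered.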

[2] = tested on: field corn (Zea mays L., var. Dekalb 535, CORN); assay: Pre-emerge greenhouse test, crop damage rating; details: 14 days after application, rating scale 0-100
Summary of the method: as §1

[3] = tested on: ivyleaf morningglory (Ipomoea hederacea, IPOHE); assay: Post-emerge greenhouse herbicide test, phytotoxicity rating; details: 14 days after application
Summary of the method: (§2)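 Scores use a 0 (no damage) to 100 (complete kill) scale, taken 14 days after a foliar spray. Acetone solutions with 0.25% v/v non-ionic surfactant were applied by track sprayer at 187 l/ha and 63-1000 g ai/ha to bottom-watered 2-3 leaf plants.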

[4] = tested on: sicklepod (Cassia obtusifolia, CASOB); assay: as above; details: 14 days after application
Summary of the method: as §2

[5] = tested on: large crabgrass (Digitaria sanguinalis, DIGSA); assay: as above; details: 14 days after application
Summary of the method: as §2

[6] = tested on: Johnsongrass (Sorghum halepense, SORHA); assay: as above; details: 14 days after application
Summary of the method: as §2

[7] = tested on: redroot pigweed (Amaranthus retroflexus, AMARE); assay: as above; details: 14 days after application
Summary of the method: as §2

[8] = tested on: green foxtail (Setaria viridis, SETVI); assay: as above; details: 14 days after application
Summary of the method: as §2

[9] = tested on: velvetleaf (Abutilon theophrasti, ABUTH); assay: as above; details: 14 days after application
Summary of the method: as §2

[10] = tested on: lambsquarters (Chenopodium album, CHEAL); assay: as above; details: 14 days after application
Summary of the method: as §2

[11] = tested on: barnyardgrass (Echinochloa crusgalli, ECHCG); assay: as above; details: 14 days after application
Summary of the method: as §2

[12] = tested on: common ragweed (Ambrosia artemisiifolia L., AMBEL); assay: Pre-emerge greenhouse herbicide test, phytotoxicity rating; details: 14 days after application, rating scale 0-100
Summary of the method: as §1

[13] = tested on: ivyleaf morningglory (Ipomoea hederacea, IPOHE); assay: as above; details: 14 days after application, rating scale 0-100
Summary of the method: as §1

[14] = tested on: sicklepod (Cassia obtusifolia, CASOB); assay: as above; details: 14 days after application, rating scale 0-100
Summary of the method: as §1

[15] = tested on: large crabgrass (Digitaria sanguinalis, DIGSA); assay: as above; details: 14 days after application, rating scale 0-100
Summary of the method: as §1

[16] = tested on: Johnsongrass (Sorghum halepense, SORHA); assay: as above; details: 14 days after application, rating scale 0-100
Summary of the method: as §1

[17] = tested on: redroot pigweed (Amaranthus retroflexus, AMARE); assay: as above; details: 14 days after application, rating scale 0-100
Summary of the method: as §1

[18] = tested on: green foxtail (Setaria viridis, SETVI); assay: as above; details: 14 days after application, rating scale 0-100
Summary of the method: as §1

[19] = tested on: velvetleaf (Abutilon theophrasti, ABUTH); assay: as above; details: 14 days after application, rating scale 0-100
Summary of the method: as §1

[20] = tested on: lambsquarters (Chenopodium album, CHEAL); assay: as above; details: 14 days after application, rating scale 0-100
Summary of the method: as §1

[21] = tested on: barnyardgrass (Echinochloa crusgalli, ECHCG); assay: as above; details: 14 days after application, rating scale 0-100
Summary of the method: as §1

[22] = tested on: soybean (Glycine max L., var. Pella 86, SOY); assay: Post-emerge greenhouse test, crop damage rating; parameters: key to crop damage rating SOY: 0-100 scale: 0 = no damage, 100 = complete death of all plants; details: 14 days after application
Summary of the method: as §2

[23] = tested on: soybean (Glycine max L., var. Pella 86, SOY); assay: Pre-emerge greenhouse test, crop damage rating; parameters: key to SOY crop damage rating: 0 = no damage, 100 = complete death of all plants; details: 14 days after application, rating scale 0-100
Summary of the method: as §1

[24] = tested on: upland rice (Oryza sp., var.Tebonnet, RICE); assay: Post-emerge greenhouse test, crop damage rating; details: 14 days after application
Summary of the method: as §2

[25] = tested on: field corn (Zea mays L., var. Dekalb 535, CORN); assay: Post-emerge greenhouse test, crop damage rating; details: 14 days after application
Summary of the method: as §2

[26] = tested on: common ragweed (Ambrosia artemisiifolia L., AMBEL); assay: Post-emerge greenhouse herbicide test, phytotoxicity rating; details: 14 days after application
Summary of the method: as §2

CC(=O)Nc1ccc(Oc2cc(-n3c(=O)n4n(c3=S)CCCC4)c(F)cc2Cl)c(C(F)(F)F)c1 [Compound 8-16]
crop damage rating RICE ([1]; 125 g ai/ha): 0
RICE crop damage rating ([1]; Rate 500 g al/ha): 0
crop damage rating CORN ([2]; 125 g ai/ha): 0
CORN crop damage rating ([2]; Rate 500 g al/ha): 0
IPOHE phytotoxicity rating (0-100) ([3]; 63 g al/ha): 90
phytotoxicity rating IPOHE ([3]; rate 500 g ai/ha, scale 0-100): 75
CASOB phytotoxicity rating (0-100) ([4]; 63 g al/ha): 0
phytotoxicity rating CASOB ([4]; rate 500 g ai/ha, scale 0-100): 70
DIGSA phytotoxicity rating (0-100) ([5]; 63 g al/ha): 0
phytotoxicity rating DIGSA ([5]; rate 500 g ai/ha, scale 0-100): 0
SORHA phytotoxicity rating (0-100) ([6]; 63 g al/ha): 0
phytotoxicity rating SORHA ([6]; rate 500 g ai/ha, scale 0-100): 10
AMARE phytotoxicity rating (0-100) ([7]; 63 g al/ha): 90
phytotoxicity rating AMARE ([7]; rate 500 g ai/ha, scale 0-100): 100
SETVI phytotoxicity rating (0-100) ([8]; 63 g al/ha): 10
phytotoxicity rating SETVI ([8]; rate 500 g ai/ha, scale 0-100): 30
ABUTH phytotoxicity rating (0-100) ([9]; 63 g al/ha): 80
phytotoxicity rating ABUTH ([9]; rate 500 g ai/ha, scale 0-100): 100
CHEAL phytotoxicity rating (0-100) ([10]; 63 g al/ha): 85
phytotoxicity rating CHEAL ([10]; rate 500 g ai/ha, scale 0-100): 95
ECHCG phytotoxicity rating (0-100) ([11]; 63 g al/ha): 0
phytotoxicity rating ECHCG ([11]; rate 500 g ai/ha, scale 0-100): 0
phytotoxicity rating AMBEL ([12]; 125 g ai/ha): 40
AMBEL phytotoxicity rating ([12]; Rate 500 g al/ha): 100
phytotoxicity rating IPOHE ([13]; 125 g ai/ha): 0
IPOHE phytotoxicity rating ([13]; Rate 500 g al/ha): 0
phytotoxicity rating CASOB ([14]; 125 g ai/ha): 0
CASOB phytotoxicity rating ([14]; Rate 500 g al/ha): 0
phytotoxicity rating DIGSA ([15]; 125 g ai/ha): 0
DIGSA phytotoxicity rating ([15]; Rate 500 g al/ha): 30
phytotoxicity rating SORHA ([16]; 125 g ai/ha): 0
SORHA phytotoxicity rating ([16]; Rate 500 g al/ha): 10
phytotoxicity rating AMARE ([17]; 125 g ai/ha): 80
AMARE phytotoxicity rating ([17]; Rate 500 g al/ha): 90
phytotoxicity rating SETVI ([18]; 125 g ai/ha): 0
SETVI phytotoxicity rating ([18]; Rate 500 g al/ha): 70
phytotoxicity rating ABUTH ([19]; 125 g ai/ha): 90
ABUTH phytotoxicity rating ([19]; Rate 500 g al/ha): 100
phytotoxicity rating CHEAL ([20]; 125 g ai/ha): 100
CHEAL phytotoxicity rating ([20]; Rate 500 g al/ha): 100
phytotoxicity rating ECHCG ([21]; 125 g ai/ha): 0
ECHCG phytotoxicity rating ([21]; Rate 500 g al/ha): 0
SOY crop damage rating (0-100) ([22]; 63 g al/ha): 10
crop damage rating SOY ([22]; rate 500 g ai/ha, scale 0-100): 20
crop damage rating SOY ([23]; 125 g ai/ha): 0
SOY crop damage rating ([23]; Rate 500 g al/ha): 10
RICE crop damage rating (0-100) ([24]; 63 g al/ha): 0
crop damage rating RICE ([24]; rate 500 g ai/ha, scale 0-100): 0
CORN crop damage rating (0-100) ([25]; 63 g al/ha): 0
crop damage rating CORN ([25]; rate 500 g ai/ha, scale 0-100): 5
AMBEL phytotoxicity rating (0-100) ([26]; 63 g al/ha): 40
phytotoxicity rating AMBEL ([26]; rate 500 g ai/ha, scale 0-100): 40
